Test results published in ChEMBL document CHEMBL3112462, “2-acylamino-5-nitro-1,3-thiazoles: preparation and in vitro bioevaluation against four neglected protozoan parasites” (Bioorg Med Chem, 2014).

Columns and labels:
[1] = tested on: Trichomonas vaginalis; experiment: Antimicrobial activity against Trichomonas vaginalis GT3 incubated for 48 hrs followed by compound washout measured after 48 hrs; assay type: functional, organism-based; conditions: GT3, 48 h
[2] = Cytotoxicity against African green monkey Vero cells assessed as cell viability after 48 hrs by SRB assay; assay type: cell-based; conditions: chlorocebus sabaeus
[3] = tested on: Leishmania amazonensis; experiment: Antimicrobial activity against promastigote stage of Leishmania amazonensis IFLA/BR/67/PH-8 clinical isolate after 72 hrs by Neubauer chamber analysis; assay type: functional, organism-based; conditions: IFLA/BR/67/PH-8, 72 h
[4] = tested on: Trypanosoma cruzi; experiment: Antimicrobial activity against epimastigote stage of Trypanosoma cruzi MHOM/MX/1994/Ninoa clinical isolate after 72 hrs by Neubauer chamber analysis; assay type: functional, organism-based
[5] = tested on: Giardia intestinalis; experiment: Antimicrobial activity against Giardia intestinalis IMSS:0696:1 incubated for 48 hrs followed by compound washout measured after 48 hrs; assay type: functional, organism-based; conditions: Giardia duodenalis, IMSS:0696:1, 48 h
[6] = tested on: Giardia intestinalis; experiment: Ratio of metronidazole IC50 to compound IC50 for Giardia intestinalis IMSS:0696:1; assay type: functional, Giardia duodenalis
[7] = tested on: Trichomonas vaginalis; experiment: Ratio of metronidazole IC50 to compound IC50 for Trichomonas vaginalis GT3; assay type: functional
[8] = Selectivity index, ratio of CC50 for African green monkey Vero cells to IC50 for Giardia intestinalis IMSS:0696:1; assay type: functional
[9] = Selectivity index, ratio of CC50 for African green monkey Vero cells to IC50 for Trichomonas vaginalis GT3; assay type: functional
[10] = tested on: Leishmania amazonensis; experiment: Ratio of pentamidine IC50 to compound IC50 for promastigote stage of Leishmania amazonensis IFLA/BR/67/PH-8 clinical isolate; assay type: functional
[11] = tested on: Trypanosoma cruzi; experiment: Ratio of benznidazole IC50 to compound IC50 for epimastigote stage of Trypanosoma cruzi MHOM/MX/1994/Ninoa clinical isolate; assay type: functional

Compound	IC50 ([1]; read-out: IC50)	IC50 ([1]; read-out: pIC50 (converted))	CC50 at 48 h [2]	IC50 [3]	IC50 [4]	IC50 ([5]; read-out: IC50)	IC50 ([5]; read-out: pIC50 (converted))	Ratio IC50 [6]	Ratio IC50 [7]	Ratio CC50/IC50 [8]	Ratio CC50/IC50 [9]	Ratio IC50 [10]	Ratio IC50 [11]
CCCCC(=O)Nc1ncc([N+](=O)[O-])s1	0.305 µM	0.316 µM	> 1000 µM	> 50 µM	> 50 µM	0.398 µM	0.398 µM	11	–	–	–	–	–
O=C(Nc1ccccc1)Nc1ncc([N+](=O)[O-])s1	–	–	> 1000 µM	38.5 µM	> 50 µM	2.57 µM	2.57 µM	–	–	–	–	–	–
O=C(Nc1ncc([N+](=O)[O-])s1)NC1CCCCC1	1.65 µM	2 µM	> 1000 µM	> 50 µM	> 50 µM	0.359 µM	0.363 µM	11	–	–	–	–	–
O=C(Nc1ccc(Cl)cc1)Nc1ncc([N+](=O)[O-])s1	1.03 µM	1.26 µM	> 1000 µM	37.2 µM	> 50 µM	0.577 µM	0.589 µM	11	–	–	–	–	–
O=C(Nc1ccc(F)cc1)Nc1ncc([N+](=O)[O-])s1	1.23 µM	1.26 µM	> 1000 µM	> 50 µM	> 50 µM	7.83 µM	7.94 µM	–	–	–	–	–	–
COc1ccc(NC(=O)Nc2ncc([N+](=O)[O-])s2)cc1	1.3 µM	1.58 µM	–	32.2 µM	> 50 µM	29.1 µM	29.5 µM	–	–	–	–	–	–
CCOc1ccc(NC(=O)Nc2ncc([N+](=O)[O-])s2)cc1	0.282 µM	0.316 µM	> 1000 µM	> 50 µM	> 50 µM	3.75 µM	3.8 µM	–	–	–	–	–	–
CCCCOc1ccc(NC(=O)Nc2ncc([N+](=O)[O-])s2)cc1	0.387 µM	0.398 µM	58 µM	> 50 µM	> 50 µM	1.8 µM	1.82 µM	–	–	–	–	–	–
O=C(Nc1ccc([N+](=O)[O-])cc1)Nc1ncc([N+](=O)[O-])s1	0.958 µM	1 µM	–	> 50 µM	> 50 µM	15.3 µM	15.5 µM	–	–	–	–	–	–
CCCCCCCCCCCCCCCC(=O)Nc1ncc([N+](=O)[O-])s1	2.58 µM	3.16 µM	> 1000 µM	> 50 µM	> 50 µM	1.63 µM	1.66 µM	–	–	–	–	–	–
COC(=O)Nc1ncc([N+](=O)[O-])s1	0.081 µM	0.1 µM	2460 µM	> 50 µM	> 50 µM	0.01 µM	0.01 µM	536	4	246300	30407	–	–
CCOC(=O)C(=O)Nc1ncc([N+](=O)[O-])s1	0.01 µM	0.01 µM	1420 µM	> 50 µM	> 50 µM	6.41 µM	6.46 µM	–	29	220	141500	–	–
Nc1ncc([N+](=O)[O-])s1	52.9 µM	63.1 µM	441 µM	> 50 µM	> 50 µM	29.6 µM	27.5 µM	–	–	–	–	–	–
O=C(Cn1ccnc1[N+](=O)[O-])NCc1ccccc1 [BENZNIDAZOLE]	–	–	14 µM	> 50 µM	–	–	–	–	–	–	–	–	–
Cc1ncc([N+](=O)[O-])n1CCO [METRONIDAZOLE]	–	0.316 µM	387 µM	> 50 µM	> 50 µM	–	–	–	–	–	–	–	–
CC(=O)Oc1ccccc1C(=O)Nc1ncc([N+](=O)[O-])s1 [NITAZOXANIDE]	–	0.0794 µM	833 µM	7.23 µM	–	–	1.23 µM	–	–	–	–	2	2
CC(=O)Nc1ncc([N+](=O)[O-])s1 [NITHIAMIDE]	0.022 µM	0.0251 µM	> 1000 µM	> 50 µM	> 50 µM	0.49 µM	0.501 µM	11	13	–	–	–	–
N=C(N)c1ccc(OCCCCCOc2ccc(C(=N)N)cc2)cc1 [PENTAMIDINE]	–	–	47 µM	14.3 µM	> 50 µM	–	–	–	–	–	–	–	–
